The text below walks through data of ChEMBL document CHEMBL5356958, “Discovery of a Highly Potent and Selective MYOF Inhibitor with Improved Water Solubility for the Treatment of Gastric Cancer” (J Med Chem, 2023).

As a reminder, the IC50 is the concentration that gives 50% inhibition. Lower therefore signals greater potency in that assay. Broadly, the solubility is how much of the substance goes into solution per volume. Read a high solubility as a readily soluble substance. One may read the half-life as how long it takes for the measured level to halve. Higher therefore signals slow loss. What is called MRT is the average time that molecules of a dose stay in the body.

Values after ≈ are worked out from the molar mass of the structure shown. Where only a bound is given, the exact number is not on record here.

One data set has as its system CWR22R. The data set can be described thus: Antiproliferative activity against human 22Rv1 cells incubated for 48 hrs by SRB assay. Format: functional, cell-based. As to conditions: 22Rv1, 48 h. A general note: The SRB assay estimates cell density from bound dye.
Data set [1] in a line: Aqueous solubility of compound in PBS at pH 7.4. Format: physicochemical.
The subject of another data set is BGC-823. Kind of data set: Antiproliferative activity against human BGC-823 cells incubated for 48 hrs by SRB assay. Conditions: BGC-823, 48 h. Format: functional, cell-based.
For data set [2], the target named is Voltage-gated inwardly rectifying potassium channel KCNH2 (Homo sapiens, UniProt Q12809). The data set can be described thus: Inhibition of human ERG. Format: toxicity.
Sequence of Voltage-gated inwardly rectifying potassium channel KCNH2 (Q12809 whole entry): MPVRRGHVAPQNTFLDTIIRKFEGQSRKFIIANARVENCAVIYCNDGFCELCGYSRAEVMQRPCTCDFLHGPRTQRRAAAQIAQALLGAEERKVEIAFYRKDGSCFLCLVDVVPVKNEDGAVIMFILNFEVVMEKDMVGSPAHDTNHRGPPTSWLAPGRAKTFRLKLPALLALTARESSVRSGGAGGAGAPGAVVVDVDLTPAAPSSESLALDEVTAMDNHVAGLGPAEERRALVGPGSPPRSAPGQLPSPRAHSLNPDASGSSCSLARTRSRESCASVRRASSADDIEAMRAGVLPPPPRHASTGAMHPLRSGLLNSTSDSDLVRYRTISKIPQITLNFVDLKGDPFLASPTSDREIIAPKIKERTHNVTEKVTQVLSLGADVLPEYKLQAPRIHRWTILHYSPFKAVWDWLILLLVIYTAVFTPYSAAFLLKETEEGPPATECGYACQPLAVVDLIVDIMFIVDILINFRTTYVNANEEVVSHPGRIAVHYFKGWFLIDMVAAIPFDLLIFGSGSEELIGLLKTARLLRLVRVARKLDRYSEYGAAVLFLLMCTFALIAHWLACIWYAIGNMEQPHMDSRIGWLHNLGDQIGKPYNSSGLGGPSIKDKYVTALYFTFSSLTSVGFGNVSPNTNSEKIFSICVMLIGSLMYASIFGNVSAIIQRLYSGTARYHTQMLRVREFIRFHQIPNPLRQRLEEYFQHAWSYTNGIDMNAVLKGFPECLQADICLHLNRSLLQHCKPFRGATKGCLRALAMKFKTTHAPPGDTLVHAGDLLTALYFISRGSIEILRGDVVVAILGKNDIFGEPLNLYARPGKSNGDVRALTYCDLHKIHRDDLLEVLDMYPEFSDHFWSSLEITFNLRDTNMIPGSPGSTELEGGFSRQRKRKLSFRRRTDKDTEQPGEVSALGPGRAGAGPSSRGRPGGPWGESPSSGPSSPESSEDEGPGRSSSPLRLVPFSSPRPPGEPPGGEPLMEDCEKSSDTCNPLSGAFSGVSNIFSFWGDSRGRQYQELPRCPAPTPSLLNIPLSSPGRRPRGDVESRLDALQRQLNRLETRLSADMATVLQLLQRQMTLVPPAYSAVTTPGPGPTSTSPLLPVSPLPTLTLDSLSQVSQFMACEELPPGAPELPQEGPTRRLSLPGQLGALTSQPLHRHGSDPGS
In a further data set the test system is MGC-803. The data set can be described thus: Antiinvasive activity against human MGC-803 cells incubated for 24 hrs by crystal violet staining based inverted microscopic analysis. Format: functional, cell-based.
Data set [3] in a line: Half life in ICR mouse at 1 mg/kg, iv. Format: ADME, organism-based. As to conditions: in vivo.
The subject of data set [4] is MKN-45. The data set can be described thus: Inhibition of epithelial mesenchymal transition in human MKN-45 cells assessed as upregulation in E-cadherin level by Western blotting analysis. Format: functional, cell-based. As to conditions: dose 100-400 nM. In general terms: In western blotting, separated proteins are transferred to a membrane and probed.
In data set [5] the test system is MKN-45. The data set can be described thus: Antiproliferative activity against human MKN-45 cells incubated for 48 hrs by SRB assay. As to conditions: MKN-45, 48 h. Format: functional, cell-based.
In data set [6] the test system is MKN-45. The data set can be described thus: Induction of apoptosis in human MKN-45 cells assessed as late apoptotic cells at 400 nM incubated for 48 hrs by Annexin V-FITC/PI staining based flow cytometry analysis (reference value: 2.6%). Format: functional. (In general: Flow cytometry measures light scatter and fluorescence of single cells or particles in a stream.)

In another data set the test system is SK-HEP1. The data set can be described thus: Antiproliferative activity against human SK-HEP1 cells incubated for 48 hrs by SRB assay. As to conditions: SK-HEP1, 48 h. Format: functional, cell-based.
For another data set, the target named is Cytochrome P450 2D6 (Homo sapiens, UniProt P10635). The data set can be described thus: Inhibition of CYP2D6 in human liver microsomes. Format: ADME, Microsome.
Sequence of Cytochrome P450 2D6 (P10635 whole entry): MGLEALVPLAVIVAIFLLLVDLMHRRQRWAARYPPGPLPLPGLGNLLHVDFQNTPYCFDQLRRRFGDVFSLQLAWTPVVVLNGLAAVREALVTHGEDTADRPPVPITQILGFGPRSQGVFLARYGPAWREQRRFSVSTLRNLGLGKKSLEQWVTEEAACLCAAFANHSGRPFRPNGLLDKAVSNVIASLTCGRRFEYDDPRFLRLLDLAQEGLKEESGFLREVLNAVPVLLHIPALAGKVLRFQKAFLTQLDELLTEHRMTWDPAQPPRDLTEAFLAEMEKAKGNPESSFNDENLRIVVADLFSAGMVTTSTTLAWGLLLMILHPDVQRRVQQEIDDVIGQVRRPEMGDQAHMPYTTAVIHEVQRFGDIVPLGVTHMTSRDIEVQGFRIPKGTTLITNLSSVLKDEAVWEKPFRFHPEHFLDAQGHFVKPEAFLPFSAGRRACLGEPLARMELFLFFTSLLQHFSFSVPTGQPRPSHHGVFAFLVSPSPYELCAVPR
Data set [7] has as its system MKN-45. Kind of data set: Antitumor activity against human MKN-45 cells xenografted in BALB/c mouse assessed as tumor growth inhibition at 30 mg/kg/day, ip measured every 3 days for 21 days. Conditions: MKN-45, 504 h, time 21 day, read-out: TGI. Format: functional.
Data set [8] in a line: Mean residence time in ICR mouse at 1 mg/kg, iv. Conditions: in vivo. Format: ADME, organism-based.
A short description of data set [9]: Toxicity in BALB/c mouse assessed as change in spleen morphology at 15 to 30 mg/kg, ip measured every 3 days for 21 days by HE staining based assay. Format: organism-based. As to conditions: in vivo, 504 h, dose 15-30 mg/kg, time 21 day.

Consider `CCc1nc(-c2ccc(OC)cc2)n(-c2cccc(C(=O)NCCCCn3nccn3)c2)n1`, for which the IC50 in the data set on CWR22R was more than 10000 nM; in the data set with BGC-823, 290 nM; in data set [2], more than 40000 nM; in the data set with MGC-803 (MGC-803, 24 h), 60 nM; in the data set with MKN-45 [5] it was 140 nM; in the data set on SK-HEP1, 750 nM. At Cytochrome P450 2D6, the IC50 is more than 50000 nM. The compound also gave a solubility in [1] of 272 µM (≈ 121 µg/mL). Besides, the Activity result in the data set with MGC-803 was “Dose-Dependent Effect”; in the data set on MKN-45 [6], 37.6%; in data set [9], “Non-Toxic”. This compound also registered a half-life in data set [3] of 13.2 min. Besides, the inhibition entry in the data set on MKN-45 [4] was “Dose-Dependent Effect”. Also, the inhibition in vivo at 30 mg/kg/day in the data set with MKN-45 [7] was 68.5%. The compound further had an MRT in data set [8] of 17.2 min.
